Values joined by “and” are separate entries in the source; they are usually repeats but may differ in a detail not shown here. Equal entries are not always repeated. Toxic doses and inconclusive results are not listed.
Tested on: L1210 leukemia ip in BDF1 mice, survival T/C
Assay: NCI In Vivo Anticancer Drug Screen. Data for tumor model L1210 Leukemia (intraperitoneal) in B6D2F1 (BDF1) mice
Settings: endpoint: mean survival time, higher = longer survival
Outline: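 Mice bearing the transplanted tumor received compound or vehicle. Survival of the treated group was divided by that of the vehicle-treated control group to give the ratio.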

[1] = dose: 100.0 mg/kg/injection, schedule: Q04DX003 (ip), vehicle: saline with Tween-80
[2] = dose: 400.0 mg/kg/injection, schedule: Q04DX003 (ip), vehicle: saline with Tween-80
[3] = dose: 200.0 mg/kg/injection, schedule: Q04DX003 (ip), vehicle: saline with Tween-80
[4] = dose: 100.0 mg/kg/injection, schedule: Q04DX002 (ip), vehicle: saline with Tween-80
[5] = dose: 200.0 mg/kg/injection, schedule: Q04DX002 (ip), vehicle: saline with Tween-80
[6] = dose: 400.0 mg/kg/injection, schedule: Q04DX002 (ip), vehicle: saline with Tween-80
[7] = dose: 100.0 mg/kg/injection, schedule: Q01DX001 (ip), vehicle: saline
[8] = dose: 200.0 mg/kg/injection, schedule: Q01DX001 (ip), vehicle: saline
[9] = dose: 100.0 mg/kg/injection, schedule: Q01DX009 (ip), vehicle: saline with Tween-80
[10] = dose: 200.0 mg/kg/injection, schedule: Q01DX009 (ip), vehicle: saline with Tween-80
[11] = dose: 100.0 mg/kg/injection, schedule: Q01DX009 (ip), vehicle: Klucel (hydroxypropylcellulose) (HPC)
[12] = dose: 100.0 mg/kg/injection, schedule: Q04DX003 (ip), vehicle: Klucel (hydroxypropylcellulose) (HPC)
[13] = dose: 200.0 mg/kg/injection, schedule: Q01DX009 (ip), vehicle: Klucel (hydroxypropylcellulose) (HPC)
[14] = dose: 200.0 mg/kg/injection, schedule: Q04DX003 (ip), vehicle: Klucel (hydroxypropylcellulose) (HPC)
[15] = dose: 400.0 mg/kg/injection, schedule: Q01DX009 (ip), vehicle: Klucel (hydroxypropylcellulose) (HPC)
[16] = dose: 400.0 mg/kg/injection, schedule: Q04DX003 (ip), vehicle: Klucel (hydroxypropylcellulose) (HPC)
[17] = dose: 400.0 mg/kg/injection, schedule: Q01DX001 (ip), vehicle: saline

For `CCCCCCCCCCCCCCCCCC[Se][Se]CCCCCCCCCCCCCCCCCC`, the T/C (dose: 6.25 mg/kg/injection, schedule: Q01DX009 (ip), vehicle: saline with Tween-80) was 94 % of control, the T/C (dose: 12.5 mg/kg/injection, schedule: Q01DX009 (ip), vehicle: saline with Tween-80) was 93 % of control and the T/C (dose: 25.0 mg/kg/injection, schedule: Q01DX009 (ip), vehicle: saline with Tween-80) was 98 % of control and 89 % of control. The T/C [1] was 87 % of control and the T/C [2] was 86 % of control.

`CNC(Cc1ccc(OCc2ccccc2)cc1)C(=O)NC(CO)CC(C)C` (stereo unspecified) was tested, and the T/C [1] was 102 % of control, the T/C [3] was 96 % of control and the T/C [2] was 105 % of control.

With `CCNC(=S)Nc1ccc(OCC)cc1` the T/C [4] was 89 % of control, the T/C [5] was 95 % of control and the T/C [6] was 100 % of control.

With `COc1c2c(c(OC)c3c(=O)c4ccccc4[nH]c13)OCO2` the T/C (dose: 62.5 mg/kg/injection, schedule: Q01DX001 (ip), vehicle: carboxymethylcellulose (CMC)) was 100 % of control, the T/C (dose: 125.0 mg/kg/injection, schedule: Q01DX001 (ip), vehicle: carboxymethylcellulose (CMC)) was 97 % of control and the T/C (dose: 250.0 mg/kg/injection, schedule: Q01DX001 (ip), vehicle: carboxymethylcellulose (CMC)) was 105 % of control. The T/C (dose: 500.0 mg/kg/injection, schedule: Q01DX001 (ip), vehicle: carboxymethylcellulose (CMC)) was 97 % of control.

For `CCCN(CCC)c1ccc(SC#N)cc1`, the T/C [7] was 98 % of control and the T/C [8] was 95 % of control.

For `N#CCN(CC#N)CCCN(CC#N)CC#N`, the T/C (dose: 25.0 mg/kg/injection, schedule: Q01DX001 (ip), vehicle: saline with Tween-80) was 96 % of control, the T/C (dose: 50.0 mg/kg/injection, schedule: Q01DX001 (ip), vehicle: saline with Tween-80) was 102 % of control and the T/C (dose: 200.0 mg/kg/injection, schedule: Q01DX001 (ip), vehicle: saline with Tween-80) was 102 % of control and 90 % of control. The T/C (dose: 400.0 mg/kg/injection, schedule: Q01DX001 (ip), vehicle: saline with Tween-80) was 93 % of control.

In the case of `O=C1Nc2ccccc2Cc2ccccc21`, the T/C [9] is reported as 93 % of control, the T/C [1] is reported as 102 % of control and the T/C [10] is reported as 92 % of control. The T/C [3] was 102 % of control and the T/C [2] was 107 % of control.

For `O=C1/C(=C2\CCCc3ccc(Cl)cc32)CCc2ccc(Cl)cc21`, the T/C [9] was 100 % of control, the T/C [10] was 97 % of control and the T/C (dose: 400.0 mg/kg/injection, schedule: Q01DX009 (ip), vehicle: saline with Tween-80) was 96 % of control.

In the case of `Cc1cc(C(=O)NC(CCC(=O)O)C(=O)O)cc(C)c1N(C)Cc1cnc2nc(N)nc(N)c2n1` (stereo unspecified), the T/C (dose: 3.13 mg/kg/injection, schedule: Q01DX009 (ip), vehicle: saline) is reported as 158 % of control, the T/C (dose: 6.25 mg/kg/injection, schedule: Q01DX009 (ip), vehicle: saline) is reported as 161 % of control and the T/C (dose: 12.5 mg/kg/injection, schedule: Q01DX009 (ip), vehicle: saline) is reported as 153 % of control and 165 % of control. For the same molecule, the T/C (dose: 50.0 mg/kg/injection, schedule: Q01DX009 (ip), vehicle: sodium bicarbonate) was 101 % of control.

For `Brc1cc(Cc2c(Br)csc2Br)c(Br)s1`, the T/C [4] was 101 % of control, the T/C [5] was 101 % of control and the T/C [6] was 101 % of control.

With `N=C(N)SC1c2ccccc2-c2ccc(Br)cc21` (stereo unspecified) the T/C (dose: 75.0 mg/kg/injection, schedule: Q01DX001 (ip), vehicle: carboxymethylcellulose (CMC)) was 104 % of control and the T/C (dose: 150.0 mg/kg/injection, schedule: Q01DX001 (ip), vehicle: carboxymethylcellulose (CMC)) was 91 % of control.

`C=CC[Si](CC=C)(CC=C)OCC` was tested, and the T/C (dose: 150.0 mg/kg/injection, schedule: Q01DX001 (ip), vehicle: other) was 95 % of control and the T/C (dose: 300.0 mg/kg/injection, schedule: Q01DX001 (ip), vehicle: other) was 101 % of control.

For `CCN(C(=O)COc1ccc(Cl)cc1)c1ccccc1C`, the T/C [11] was 102 % of control, the T/C [12] was 101 % of control and the T/C [13] was 107 % of control. For the same molecule, the T/C [14] was 97 % of control, the T/C [15] was 116 % of control and the T/C [16] was 98 % of control.

In the case of `NC(C(=O)O)C(C(=O)O)c1ccccc1` (stereo unspecified), the T/C (dose: 100.0 mg/kg/injection, schedule: Q04DX002 (ip), vehicle: Klucel (hydroxypropylcellulose) (HPC)) is reported as 101 % of control, the T/C (dose: 200.0 mg/kg/injection, schedule: Q04DX002 (ip), vehicle: Klucel (hydroxypropylcellulose) (HPC)) is reported as 101 % of control and the T/C (dose: 400.0 mg/kg/injection, schedule: Q04DX002 (ip), vehicle: Klucel (hydroxypropylcellulose) (HPC)) is reported as 93 % of control.

For `C=CC(OC)OC`, the T/C (dose: 25.0 mg/kg/injection, schedule: Q04DX003 (ip), vehicle: saline) was 95 % of control and the T/C (dose: 50.0 mg/kg/injection, schedule: Q04DX003 (ip), vehicle: saline) was 93 % of control.

With `OCC1OC(n2cnc3c(SCc4ccccn4)ncnc32)C(O)C1O` (stereo unspecified) the T/C [7] was 101 % of control, the T/C [8] was 113 % of control and the T/C [17] was 115 % of control.

`CCOC(=O)C(C)C(c1ccccc1)c1ccccc1` (stereo unspecified) was tested, and the T/C [1] was 92 % of control, the T/C [3] was 93 % of control and the T/C [2] was 96 % of control.

With `Cc1ccc(S(=O)(=O)Oc2ccc([N+](=O)[O-])cc2)cc1` the T/C [11] was 103 % of control, the T/C [12] was 97 % of control and the T/C [13] was 97 % of control. The T/C [14] was 94 % of control, the T/C [15] was 102 % of control and the T/C [16] was 100 % of control.

`COc1ccc(NC(=O)NC(C)(C)C)c(OC)c1` was tested, and the T/C [11] was 100 % of control, the T/C [13] was 100 % of control and the T/C [15] was 98 % of control.

For `CC12CCC3c4ccc(O)cc4CCC3C1CCC2O` (stereo unspecified), the T/C (dose: 50.0 mg/kg/injection, schedule: Q01DX001 (sc), vehicle: steriod suspending solution) was 105 % of control and 111 % of control, the T/C (dose: 100.0 mg/kg/injection, schedule: Q01DX001 (sc), vehicle: steriod suspending solution) was 98 % of control and 115 % of control and the T/C (dose: 200.0 mg/kg/injection, schedule: Q01DX001 (sc), vehicle: steriod suspending solution) was 98 % of control and 103 % of control. The T/C (dose: 400.0 mg/kg/injection, schedule: Q01DX001 (sc), vehicle: steriod suspending solution) was 101 % of control and 109 % of control.

`CC1Cc2c(Cl)cc(C(=O)NC(Cc3ccccc3)C(=O)O)c(O)c2C(=O)O1` (stereo unspecified) was tested, and the T/C (dose: 0.12 mg/kg/injection, schedule: Q01DX009 (ip), vehicle: saline with Tween-80) was 95 % of control, the T/C (dose: 0.25 mg/kg/injection, schedule: Q01DX009 (ip), vehicle: saline with Tween-80) was 93 % of control and the T/C (dose: 0.5 mg/kg/injection, schedule: Q01DX009 (ip), vehicle: saline with Tween-80) was 96 % of control. For the same molecule, the T/C (dose: 1.0 mg/kg/injection, schedule: Q01DX009 (ip), vehicle: saline with Tween-80) was 96 % of control, the T/C (dose: 50.0 mg/kg/injection, schedule: Q01DX001 (ip), vehicle: carboxymethylcellulose (CMC)) was 100 % of control and the T/C (dose: 100.0 mg/kg/injection, schedule: Q01DX001 (ip), vehicle: carboxymethylcellulose (CMC)) was 107 % of control.

For `CC(=O)Nc1nc(C)c(CCCNS(=O)(=O)c2ccc([N+](=O)[O-])cc2)c(=O)[nH]1`, the T/C (dose: 100.0 mg/kg/injection, schedule: Q01DX009 (ip), vehicle: gum acacia) was 90 % of control, the T/C (dose: 200.0 mg/kg/injection, schedule: Q01DX009 (ip), vehicle: gum acacia) was 88 % of control and the T/C (dose: 400.0 mg/kg/injection, schedule: Q01DX009 (ip), vehicle: gum acacia) was 87 % of control.

For `c1ccc(COc2ccc(Cc3nccc4ccccc34)cc2OCc2ccccc2)cc1`, the T/C [1] was 88 % of control and the T/C [2] was 88 % of control.

`COC(=O)c1cc(NC(=O)Nc2ccc(Cl)cc2[N+](=O)[O-])cc(C(=O)OC)c1` was tested, and the T/C [11] was 92 % of control, the T/C [13] was 101 % of control and the T/C [15] was 93 % of control.

For `CC(=O)OC1=CC2(OC(C)=O)CCC1C1C(=O)OC(=O)C12` (stereo unspecified), the T/C [7] was 102 % of control, the T/C (dose: 100.0 mg/kg/injection, schedule: Q04DX003 (ip), vehicle: acetone) was 93 % of control and the T/C [8] was 91 % of control. The T/C (dose: 200.0 mg/kg/injection, schedule: Q04DX003 (ip), vehicle: acetone) was 96 % of control and the T/C [17] was 90 % of control.

With `C#CCSC(=S)OCC` the T/C (dose: 100.0 mg/kg/injection, schedule: Q04DX003 (ip), vehicle: other) was 95 % of control and the T/C (dose: 200.0 mg/kg/injection, schedule: Q04DX003 (ip), vehicle: other) was 101 % of control.

For `O=C(c1ccccc1Br)C1C(c2ccccc2)N1C1CCCCC1` (stereo unspecified), the T/C (dose: 50.0 mg/kg/injection, schedule: Q04DX003 (ip), vehicle: Klucel (hydroxypropylcellulose) (HPC)) was 102 % of control, the T/C [12] was 102 % of control and the T/C [14] was 98 % of control. The T/C [16] was 93 % of control.

`O=C(Nc1c[nH]c(=O)[nH]c1=O)Oc1ccccc1` was tested, and the T/C [11] was 98 % of control, the T/C [12] was 100 % of control and the T/C [13] was 95 % of control. The T/C [14] was 88 % of control, the T/C [15] was 93 % of control and the T/C [16] was 100 % of control.

Source: PubChem BioAssay AID248 (DTP/NCI, 2004)
